Measurements taken from PubChem BioAssay (NCI).
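Results reflect a 48-hour exposure of cells in 96-well plates to compound at five concentrations. The concentration for 50% growth inhibition is given as GI50. TGI: total growth inhibition.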

Tests used:
Experiment in all cases: inhibition of tumour cell growth, NCI panel, 48 h
HCT-116 colon = tested on: HCT-116 colon
HL-60(TB) leukemia = tested on: HL-60(TB) leukemia
SK-MEL-2 melanoma = tested on: SK-MEL-2 melanoma
COLO 205 colon = tested on: COLO 205 colon
RPMI-8226 leukemia = tested on: RPMI-8226 leukemia
A549 NSCLC = tested on: A549 NSCLC
SK-MEL-28 melanoma = tested on: SK-MEL-28 melanoma
NCI-H226 lung = tested on: NCI-H226 lung
K-562 leukemia = tested on: K-562 leukemia
OVCAR-4 ovarian = tested on: OVCAR-4 ovarian

Structure (SMILES)	TGI (HCT-116 colon)	TGI (HL-60(TB) leukemia)	TGI (SK-MEL-2 melanoma)	TGI (COLO 205 colon)	TGI (RPMI-8226 leukemia)	TGI (A549 NSCLC)	TGI (SK-MEL-28 melanoma)	TGI (NCI-H226 lung)	TGI (K-562 leukemia)	TGI (OVCAR-4 ovarian)	GI50 (HCT-116 colon)	GI50 (HL-60(TB) leukemia)	GI50 (SK-MEL-2 melanoma)	GI50 (RPMI-8226 leukemia)	GI50 (A549 NSCLC)	GI50 (SK-MEL-28 melanoma)	GI50 (NCI-H226 lung)	GI50 (K-562 leukemia)	GI50 (OVCAR-4 ovarian)	GI50 (COLO 205 colon)
CCOC(=O)CNC(=O)N(CC)C12CC3CC(CC(C3)C1)C2	297 µM	314 µM	205 µM	227 µM	316 µM	602 µM	560 µM	371 µM	409 µM	536 µM	–	–	–	–	–	–	–	–	–	–
CCOP(=O)(OCC)C(c1ccc(F)cc1)N(C(=O)NC(F)(F)F)c1cccc(C(F)(F)F)c1 (stereo not given)	> 100 µM	> 100 µM	> 100 µM	> 100 µM	> 100 µM	> 100 µM	> 100 µM	> 100 µM	> 100 µM	> 100 µM	–	–	–	–	–	–	–	–	–	–
CC(=O)Nc1ccc(/C=C/c2ccc(NC(=O)Nc3ccc(/C=C/c4ccc(NC(C)=O)cc4S(=O)(=O)O)c(S(=O)(=O)O)c3)cc2S(=O)(=O)O)c(S(=O)(=O)O)c1	> 100 µM	> 100 µM	> 100 µM	> 100 µM	> 100 µM	> 100 µM	> 100 µM	> 100 µM	> 100 µM	> 100 µM	–	–	–	–	–	–	–	–	–	–
COc1ccccc1CNCCCN1C(=O)c2ccc3c4c(ccc(c24)C1=O)C(=O)N(CCCNCCNCCCN)C3=O	3.04 µM	6.34 µM	6.49 µM	–	> 100 µM	13.1 µM	9.66 µM	21.3 µM	16.7 µM	1.68 µM	0.717 µM	2.54 µM	2.67 µM	10.9 µM	3.01 µM	3.03 µM	2.99 µM	3.24 µM	0.466 µM	–
CCC(C)NC1=NCC(C)S1 (stereo not given)	> 100 µM	> 100 µM	> 100 µM	> 100 µM	> 100 µM	> 100 µM	> 100 µM	> 100 µM	> 100 µM	–	–	–	–	–	–	–	–	–	–	–
CC1CC2=C(S(=O)(=O)c3ccccc3)CC(S(=O)(=O)c3ccccc3)(S(=O)(=O)c3ccccc3)CC21 (stereo not given)	> 100 µM	> 100 µM	> 100 µM	> 100 µM	> 100 µM	> 100 µM	> 100 µM	> 100 µM	> 100 µM	> 100 µM	–	–	–	–	–	–	–	–	–	–
Clc1ccc(C[P+](c2ccccc2)(c2ccccc2)c2ccccc2)c(Cl)c1	10.3 µM	3.25 µM	7.71 µM	2.44 µM	5.31 µM	32.5 µM	20.1 µM	7.77 µM	–	35.6 µM	–	–	–	–	–	–	–	–	–	–
CCOC(=O)Cn1c(=O)ccn(COCCO)c1=O	–	> 100 µM	> 100 µM	> 100 µM	> 100 µM	> 100 µM	> 100 µM	–	> 100 µM	> 100 µM	–	–	–	–	–	–	–	–	–	–
COc1cc2oc(-c3ccc(O)cc3)c(OC)c(=O)c2c(O)c1OC	> 100 µM	–	> 100 µM	> 100 µM	–	> 100 µM	> 100 µM	> 100 µM	> 100 µM	> 100 µM	34.8 µM	–	39.2 µM	–	58.6 µM	> 100 µM	45.7 µM	42.8 µM	99.2 µM	32.1 µM
C[C@@H]1Nc2cc(NC(=O)OCCF)nc(N)c2N=C1c1ccccc1	> 100 µM	< 0.0001 µM	–	< 0.0001 µM	< 0.0001 µM	46.6 µM	> 100 µM	–	< 0.0001 µM	> 100 µM	–	–	–	–	–	–	< 0.0001 µM	–	> 100 µM	–
CCOC(=O)c1ccc(N[C@@H]2c3cc4c(cc3C(c3cc(OC)c(O)c(OC)c3)[C@H]3C(=O)OCC32)OCO4)cc1O (stereo not given in full)	8.26 µM	5.66 µM	1.83 µM	7.69 µM	4.77 µM	2.51 µM	42 µM	2.39 µM	–	> 100 µM	–	–	–	–	–	–	–	–	–	–
C/C(=N/NC(N)=S)c1ccc[nH]1	> 100 µM	> 100 µM	> 100 µM	> 100 µM	> 100 µM	> 100 µM	> 100 µM	> 100 µM	> 100 µM	> 100 µM	–	–	–	–	–	–	–	–	–	–
COCCCNc1nc(N)c(C#N)c(C#N)c1C#N	> 10 µM	> 10 µM	> 10 µM	> 10 µM	> 10 µM	> 10 µM	> 10 µM	> 10 µM	> 10 µM	> 10 µM	–	–	–	–	–	–	–	–	–	–
CC1CCCCNC1=S (stereo not given)	–	> 10 µM	> 10 µM	–	–	> 10 µM	> 10 µM	> 10 µM	> 10 µM	–	–	–	–	–	–	–	–	–	–	–
COc1ccc(S(=O)(=O)c2ccccc2[N+](=O)[O-])cc1	> 100 µM	> 100 µM	> 100 µM	> 100 µM	> 100 µM	> 100 µM	> 100 µM	> 100 µM	> 100 µM	> 100 µM	–	–	–	–	–	–	–	–	–	–
